In series [1] the target is T1, Leucine-rich repeat serine/threonine-protein kinase 2 (Homo sapiens, UniProt Q5S007, G2019S). The series can be described thus: Inhibition of LRRK2 G2019S mutant (unknown origin) by cell based assay.
Series [2] addresses T1, Leucine-rich repeat serine/threonine-protein kinase 2. The series can be described thus: Inhibition of recombinant human GST-tagged LRRK2 G2019S mutant catalytic domain (970 to 2527 residues) expressed in insect cells using RtGWWRFYTLRRARQGNTKQR as substrate measured after 180 mins in presence of [gamma33P]ATP by topcount method.
Another series deals with P-gp (human MDR1). The series can be described thus: Efflux ratio of permeability from basolateral to apical side over apical to basolateral side in MDCK-MDR1 cells harboring human P-gp at 5 uM. The series is classed as ADME, cell-based, Canis lupus familiaris. As to conditions: dog.
Series [3] is described as follows: Clearance in rat at 0.5 to 1 mg/kg, iv. The format is ADME, organism-based. As to conditions: in vivo.
A short description of series [4]: Clearance in rat at 0.5 mg/kg, iv. The series is classed as ADME, organism-based. As to conditions: in vivo.
The species entered for the next series is Homo sapiens. The series can be described thus: Selectivity ratio of Ki for JAK2 (unknown origin) to Ki for recombinant human GST-tagged LRRK2 G2019S mutant catalytic domain (970 to 2527 residues) expressed in insect cells.
The target of series [5] is T2, Dual specificity protein kinase TTK (Homo sapiens) (UniProt P33981).
T2 sequence (whole entry): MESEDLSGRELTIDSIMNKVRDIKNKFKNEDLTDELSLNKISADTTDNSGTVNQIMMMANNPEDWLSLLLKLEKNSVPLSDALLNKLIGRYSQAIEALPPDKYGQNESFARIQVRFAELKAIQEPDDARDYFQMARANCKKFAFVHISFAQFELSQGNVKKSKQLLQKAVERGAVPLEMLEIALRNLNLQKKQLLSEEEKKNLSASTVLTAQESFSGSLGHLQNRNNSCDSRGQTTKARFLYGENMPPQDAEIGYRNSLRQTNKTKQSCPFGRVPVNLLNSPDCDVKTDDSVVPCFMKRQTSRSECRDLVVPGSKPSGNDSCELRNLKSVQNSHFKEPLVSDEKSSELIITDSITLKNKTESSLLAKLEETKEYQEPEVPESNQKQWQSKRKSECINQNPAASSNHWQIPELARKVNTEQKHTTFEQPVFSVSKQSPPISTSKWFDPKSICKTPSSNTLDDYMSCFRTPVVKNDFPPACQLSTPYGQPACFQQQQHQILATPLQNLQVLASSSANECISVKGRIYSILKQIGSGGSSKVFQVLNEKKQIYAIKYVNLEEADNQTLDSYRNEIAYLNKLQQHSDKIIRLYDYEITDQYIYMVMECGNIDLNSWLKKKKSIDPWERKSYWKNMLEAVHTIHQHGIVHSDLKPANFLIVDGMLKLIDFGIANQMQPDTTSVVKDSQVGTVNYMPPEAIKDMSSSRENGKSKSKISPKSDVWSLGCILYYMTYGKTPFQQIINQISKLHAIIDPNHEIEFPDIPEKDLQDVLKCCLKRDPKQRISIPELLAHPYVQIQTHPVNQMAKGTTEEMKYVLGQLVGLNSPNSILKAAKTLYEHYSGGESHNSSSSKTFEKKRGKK
The series can be described thus: Inhibition of TTK (unknown origin) at 1 uM relative to control.

Series [6] addresses Serine/threonine-protein kinase 26 (Homo sapiens) (UniProt Q9P289). The series can be described thus: Inhibition of MST4 (unknown origin) at 1 uM relative to control.
For a further series, the target named is TAK1/TAB1 (Homo sapiens) (UniProt Q15750+O43318). The series can be described thus: Inhibition of TAK1/TAB1 (unknown origin) at 1 uM relative to control. The series is classed as protein-complex assay.
Series [7] can be described thus: Ratio of AUC in rat brain to plasma at 0.5 mg/kg, iv. The format is ADME, organism-based. The following applies: brain and plasma, read-out: Ratio AUC.
The nature of series [8]: Ratio of fAUC in rat brain to plasma at 0.5 mg/kg, iv. The series is classed as ADME, organism-based. As to conditions: brain and plasma.
The nature of series [9]: Oral bioavailability in rat at 1 mg/kg. The format is ADME, organism-based. As to conditions: in vivo.
Series [10] has as its target Maternal embryonic leucine zipper kinase (Homo sapiens) (UniProt Q14680). Kind of series: Inhibition of MELK (unknown origin) at 1 uM relative to control.

Experimental findings from ChEMBL document CHEMBL4330074, “Discovery of potent azaindazole leucine-rich repeat kinase 2 (LRRK2) inhibitors possessing a key intramolecular hydrogen bond - Part 2” (Bioorg Med Chem Lett, 2019) are described below.

SMILES strings stand for the structures.

A word on the IC50: it is the midpoint of a concentration-inhibition curve. Low readings indicate greater potency in that assay, high ones weaker potency in that assay. In general, Ki refers to a measure of affinity in units of concentration, obtained from inhibition or displacement. As a reminder, the efflux ratio is a quotient of directional permeabilities that is used to spot active efflux. The term clearance denotes a measure of how efficiently the substance is removed, as volume per time. A low value points to a low capacity for elimination. Usually inhibition stands for how much of the control response was suppressed. The bioavailability is the share of a dose that reaches the circulation, judged against a reference dose that is usually intravenous. A higher bioavailability goes with good availability.

T1 sequence (Q5S007 whole entry G2019S, the tested form may be a part): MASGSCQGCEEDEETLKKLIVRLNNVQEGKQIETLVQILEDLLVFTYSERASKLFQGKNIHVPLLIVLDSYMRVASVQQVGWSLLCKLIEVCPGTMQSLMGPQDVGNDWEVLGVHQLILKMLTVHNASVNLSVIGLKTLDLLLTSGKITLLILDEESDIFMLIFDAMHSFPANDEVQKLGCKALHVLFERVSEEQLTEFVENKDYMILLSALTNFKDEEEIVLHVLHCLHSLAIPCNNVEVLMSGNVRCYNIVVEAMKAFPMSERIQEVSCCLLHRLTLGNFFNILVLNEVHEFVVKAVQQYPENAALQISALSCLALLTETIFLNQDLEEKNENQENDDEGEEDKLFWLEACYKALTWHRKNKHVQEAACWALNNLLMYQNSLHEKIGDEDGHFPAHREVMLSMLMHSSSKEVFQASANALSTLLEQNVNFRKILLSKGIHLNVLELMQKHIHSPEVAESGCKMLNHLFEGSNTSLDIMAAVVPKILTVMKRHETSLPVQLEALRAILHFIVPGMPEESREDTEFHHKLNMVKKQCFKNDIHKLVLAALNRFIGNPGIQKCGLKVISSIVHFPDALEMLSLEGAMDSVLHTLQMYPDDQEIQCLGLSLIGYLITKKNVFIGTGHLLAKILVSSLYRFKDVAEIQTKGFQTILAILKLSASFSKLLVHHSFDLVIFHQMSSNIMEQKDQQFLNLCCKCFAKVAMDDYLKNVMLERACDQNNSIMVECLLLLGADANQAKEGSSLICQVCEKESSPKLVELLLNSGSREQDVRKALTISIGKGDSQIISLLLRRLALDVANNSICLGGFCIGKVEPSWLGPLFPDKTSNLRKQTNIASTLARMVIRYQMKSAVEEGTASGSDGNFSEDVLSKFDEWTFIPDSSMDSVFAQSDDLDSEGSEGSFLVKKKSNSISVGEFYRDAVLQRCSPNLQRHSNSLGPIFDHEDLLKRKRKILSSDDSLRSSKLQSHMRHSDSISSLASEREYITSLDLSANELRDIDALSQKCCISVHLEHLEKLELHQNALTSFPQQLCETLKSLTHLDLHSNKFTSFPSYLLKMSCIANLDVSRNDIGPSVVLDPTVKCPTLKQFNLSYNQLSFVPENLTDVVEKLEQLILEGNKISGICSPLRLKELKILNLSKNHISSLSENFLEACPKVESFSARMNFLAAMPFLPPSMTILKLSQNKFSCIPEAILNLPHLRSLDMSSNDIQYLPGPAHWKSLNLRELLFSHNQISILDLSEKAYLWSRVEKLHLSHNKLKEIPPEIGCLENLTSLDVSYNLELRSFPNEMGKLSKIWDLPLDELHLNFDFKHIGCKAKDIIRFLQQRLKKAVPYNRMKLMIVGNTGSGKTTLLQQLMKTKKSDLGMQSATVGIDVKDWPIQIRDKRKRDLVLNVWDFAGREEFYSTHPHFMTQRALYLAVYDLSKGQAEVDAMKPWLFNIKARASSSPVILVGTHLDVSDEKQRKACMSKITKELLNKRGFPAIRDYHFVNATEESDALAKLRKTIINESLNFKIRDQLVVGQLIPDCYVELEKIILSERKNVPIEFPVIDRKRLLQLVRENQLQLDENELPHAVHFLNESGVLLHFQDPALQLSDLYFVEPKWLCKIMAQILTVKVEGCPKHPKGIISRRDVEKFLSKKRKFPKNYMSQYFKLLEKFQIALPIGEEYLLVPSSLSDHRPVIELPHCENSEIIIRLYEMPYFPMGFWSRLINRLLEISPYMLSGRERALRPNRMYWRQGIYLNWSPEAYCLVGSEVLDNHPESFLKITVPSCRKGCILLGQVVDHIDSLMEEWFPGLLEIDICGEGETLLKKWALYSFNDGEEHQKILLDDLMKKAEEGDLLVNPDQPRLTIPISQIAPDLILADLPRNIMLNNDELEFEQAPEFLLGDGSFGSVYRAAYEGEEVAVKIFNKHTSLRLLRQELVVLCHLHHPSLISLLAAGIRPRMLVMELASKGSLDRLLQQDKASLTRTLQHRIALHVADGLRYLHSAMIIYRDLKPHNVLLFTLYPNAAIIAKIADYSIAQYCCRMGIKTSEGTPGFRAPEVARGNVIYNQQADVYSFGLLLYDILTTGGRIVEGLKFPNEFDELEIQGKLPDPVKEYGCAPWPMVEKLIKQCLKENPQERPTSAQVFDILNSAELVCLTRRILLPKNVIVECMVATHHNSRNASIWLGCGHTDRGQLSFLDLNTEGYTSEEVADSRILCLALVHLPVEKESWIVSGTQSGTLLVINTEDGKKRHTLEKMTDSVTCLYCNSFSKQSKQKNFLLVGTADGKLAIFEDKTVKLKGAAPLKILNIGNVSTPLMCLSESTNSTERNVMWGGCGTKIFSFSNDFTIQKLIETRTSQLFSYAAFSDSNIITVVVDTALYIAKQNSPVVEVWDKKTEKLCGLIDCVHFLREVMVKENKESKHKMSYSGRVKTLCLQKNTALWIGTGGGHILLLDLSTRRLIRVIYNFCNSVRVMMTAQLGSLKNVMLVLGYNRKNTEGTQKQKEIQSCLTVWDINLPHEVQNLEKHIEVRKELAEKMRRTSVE
Sequence of Serine/threonine-protein kinase 26 (Homo sapiens) (Q9P289 2-416 limits assumed): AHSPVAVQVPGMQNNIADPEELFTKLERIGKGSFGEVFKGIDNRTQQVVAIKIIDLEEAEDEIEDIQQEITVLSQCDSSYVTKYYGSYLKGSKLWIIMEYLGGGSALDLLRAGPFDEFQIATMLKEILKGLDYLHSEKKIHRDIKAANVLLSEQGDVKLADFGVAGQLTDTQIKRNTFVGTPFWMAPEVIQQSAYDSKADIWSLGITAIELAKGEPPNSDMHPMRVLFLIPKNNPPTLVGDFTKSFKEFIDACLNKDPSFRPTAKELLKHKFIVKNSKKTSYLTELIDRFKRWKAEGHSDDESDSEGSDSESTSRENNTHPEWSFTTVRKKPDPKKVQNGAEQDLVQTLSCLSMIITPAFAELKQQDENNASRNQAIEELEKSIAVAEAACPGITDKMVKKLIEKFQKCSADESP
Sequence of Maternal embryonic leucine zipper kinase (Homo sapiens) (Q14680 whole entry, looked up): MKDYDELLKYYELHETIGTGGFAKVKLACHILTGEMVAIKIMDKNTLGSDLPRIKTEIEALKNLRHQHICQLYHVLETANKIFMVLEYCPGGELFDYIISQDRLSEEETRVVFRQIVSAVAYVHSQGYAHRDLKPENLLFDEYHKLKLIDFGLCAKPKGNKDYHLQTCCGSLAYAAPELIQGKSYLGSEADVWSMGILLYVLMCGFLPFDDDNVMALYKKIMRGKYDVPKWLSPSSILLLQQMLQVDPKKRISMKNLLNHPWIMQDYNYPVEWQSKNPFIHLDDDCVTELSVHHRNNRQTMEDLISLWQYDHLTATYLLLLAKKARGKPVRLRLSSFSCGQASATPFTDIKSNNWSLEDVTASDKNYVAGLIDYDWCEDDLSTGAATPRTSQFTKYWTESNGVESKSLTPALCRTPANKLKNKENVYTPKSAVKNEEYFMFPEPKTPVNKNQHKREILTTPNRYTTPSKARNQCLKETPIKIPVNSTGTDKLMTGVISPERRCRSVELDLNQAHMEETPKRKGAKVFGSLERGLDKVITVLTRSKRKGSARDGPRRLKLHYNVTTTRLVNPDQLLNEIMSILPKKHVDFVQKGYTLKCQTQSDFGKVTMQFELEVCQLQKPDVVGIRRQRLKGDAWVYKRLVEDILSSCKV

In [1], `CCc1cc(-c2n[nH]c3ccnc(NC4CCOCC4)c23)nn1C` returned a concentration for half-maximal inhibition (IC50) of 4.5 nM. Further, in [2], the Ki was 0.5 nM. Besides, in the series on P-gp (human MDR1), the efflux ratio at 5 µM amounted to 10.

The compound `Cc1n[nH]c2ccnc(NC3CCOCC3)c12` showed an IC50 in series [1] of 426 nM. For the same compound, the inhibitory constant (Ki) in series [2] was determined as 182 nM. The efflux ratio at 5 µM in the series with P-gp (human MDR1) was found to be 1.1. The same compound showed a clearance in series [3] of 25 mL/min/kg.

With `CC(C)Nc1nccc2[nH]nc(-c3nnc(C4CC4)n3C)c12`, the Ki in series [2] was 151 nM.

Take `CCc1cc(-c2n[nH]c3ccnc(NC(C)C)c23)nn1C`: the inhibition constant (Ki) in [2] was determined as 3.5 nM. Moreover, the efflux ratio at 5 µM with P-gp (human MDR1) came to 4.

In the case of `CC(C)n1cc(-c2n[nH]c3ccnc(NC4CCOCC4)c23)nn1`, the 50% inhibitory concentration (IC50) in series [1] was found to be 49 nM. The inhibition constant Ki in series [2] was 1.2 nM. In addition, the efflux ratio at 5 µM in the series with P-gp (human MDR1) was determined as 23.

In series [1], `c1ccc(-c2n[nH]c3ccnc(NC4CCOCC4)c23)nc1` gave an IC50 of 41 nM. The inhibitory constant (Ki) in series [2] stood at 3.1 nM. In addition, in the series with P-gp (human MDR1), the efflux ratio at 5 µM turned out to be 3.6. In addition, in series [4], the clearance came out at 22 mL/min/kg.

Turning to `c1cc(-c2n[nH]c3ccnc(OC4CCOCC4)c23)[nH]n1`, the Ki in [2] is 44 nM.

Consider `CC(C)c1nc(-c2n[nH]c3ccnc(NC4CCOCC4)c23)n[nH]1`, for which, in series [1], half-maximal inhibition (IC50) required 35 nM. Besides, in series [2], the Ki was 7.8 nM. In the series on P-gp (human MDR1), the efflux ratio at 5 µM came to 21. This compound also returned a clearance in series [4] of 35 mL/min/kg.

As to `CCc1cc(-c2n[nH]c3ccnc(NC4CCOCC4)c23)n(C)n1`, the inhibition constant Ki in series [2] worked out at 3900 nM. Further, the efflux ratio at 5 µM in the series on P-gp (human MDR1) was found to be 11.

For `Cc1[nH]nc2ccnc(NC3CCOCC3)c12`, the Ratio Ki in the series filed under Homo sapiens stood at 20.

Consider `CC(C)c1n[nH]c(-c2n[nH]c3ccnc(OC4CCOCC4)c23)n1`, for which, in [2], the Ki amounted to 4600 nM.

In [1], `c1cc(-c2n[nH]c3ccnc(NC4CCOCC4)c23)cc(N2CCOCC2)n1` displayed an IC50 of 135 nM. For the same compound, the efflux ratio at 5 µM with P-gp (human MDR1) was 1.5. The clearance in [3] worked out at 117 mL/min/kg.

Regarding `c1cc(-c2n[nH]c3ccnc(OC4CCOCC4)c23)nc(N2CCOCC2)c1`, in series [2], the Ki is 147 nM.

The compound `Cc1n[nH]c2ccnc(OC3CCOCC3)c12` registered an IC50 in series [1] of 301 nM. In addition, the Ki in series [2] was found to be 44 nM. The Ratio Ki in the series filed under Homo sapiens was found to be 20. Further, the efflux ratio at 5 µM in the series with P-gp (human MDR1) turned out to be 0.9. This compound had a clearance in series [3] of 34 mL/min/kg.

For the compound `FC(F)(F)c1cc(-c2n[nH]c3ccnc(NC4CCOCC4)c23)ncn1`, the inhibition in series [5] is 52%; in series [6], 59%; at TAK1/TAB1 (Homo sapiens), 51%. This compound also registered a half-maximal inhibitory concentration (IC50) in series [1] of 24 nM. Further, the Ki in series [2] came to 4.1 nM. In addition, the Ratio Ki in the series filed under Homo sapiens came out at 1000. Further, in the series with P-gp (human MDR1), the efflux ratio at 5 µM is 1.4. Moreover, in series [4], the clearance turned out to be 18 mL/min/kg. The Kp in series [7] worked out at 1. In addition, the Kp uu in series [8] was 0.22. In series [9], this compound registered a bioavailability of 62%.

On to `c1cc(-c2n[nH]c3ccnc(OC4CCOCC4)c23)cc(N2CCOCC2)n1`, for which the results for the inhibition in series [10] and in series [5] were 60% and 86%, respectively. In series [1], this compound showed an IC50 of 24 nM. For the same compound, in series [2], the Ki was determined as 4.2 nM. The Ratio Ki in the series listed under Homo sapiens is 882. The efflux ratio at 5 µM in the series with P-gp (human MDR1) was 3.4. The compound further showed a clearance in series [3] of 69 mL/min/kg.

In turn, `CC(C)(O)Cn1cc(-c2n[nH]c3ccnc(OC4CCOCC4)c23)cn1` had an IC50 in series [1] of 13 nM. Moreover, the Ki in [2] was 21 nM. The efflux ratio at 5 µM with P-gp (human MDR1) came out at 80. In [4], this compound yielded a clearance of 30 mL/min/kg.
